Series [1] has as its system TRPV1. The series can be described thus: Infrared laser-induced heat activation, inside-out patch. The class given is cell-based. The method, then:
The experimental set-up for rapidly heating cell membrane containing expressed TRPV1 channels was described in a previous report. Electrophysiological recordings were done in the inside-out mode. Toxin was added in the pipette solution. Laser light of 1,443 nm was generated by a laser diode (Fitel) driven by a controller (Thorlabs). The maximal optic output power of the laser was 250 mW. The laser light was transmitted to the voltage-clamped cell membrane through a single-mode optical fibre (125 μm outer diameter, 10 μm light-conducting core diameter), with the patch pipette tip placed in front of the centre of the optical fibre. Light energy was absorbed by water and converted to heat to drive channel activation. To calibrate the laser heating system, the relationship between laser driving power and temperature was tabulated as previously described. Briefly, a glass pipette was filled with a solution distinct from the bath solution and was centred at the end of the optical fibre. The laser driving power was adjusted to produce junction potential values matching those measured in the same solutions at different temperatures.

Series [2] has as its system mTRPV2. Nature of the series: Selectivity recording on mTRPV2. The class given is cell-based, mouse. Particulars: RhTx at 10 μM. As for the experimental part:
(§1) As described in details in a previous report, macroscopic currents (in whole-cell, inside-out or outside-out configuration) as well as single-channel currents were recorded using a HEKA EPC10 amplifier with the PatchMaster software (HEKA). Both pipette solution and bath solution contained 130 mM NaCl, 3 mM HEPES and 0.2 mM EDTA (pH 7.2). All recordings were performed at room temperature unless otherwise stated. A holding potential of 0 mV was used from which a testing pulse to +80 mV was applied. Statistical difference was determined using the Student’s t-test, and indicated by ** when reaching the significance level P<0.001.
(§2) Supplementary Figure 3. […]
(§3) mTRPV2 (c), mTRPV3 (d) and mTRPV4 (e). (f) Treatment with 10 μM RhTx (red traces)

A short description of series [3]: Small unilamellar vesicle-binding assay. In kind it is physicochemical. The method, then:
After the film rinsed with pentane was lyophilized at −40 °C overnight, the lipid was suspended with a buffer (10 mM HEPES, 50 mM KCl at pH 7.0). POPE (1-palmitoyl-2-oleoyl-phosphatidylethanolamine, 10 mg ml^−1) and POPG (1-palmitoyl-2-oleoylphosphatidyl-Dl-glycerol, 10 mg ml^−1) were mixed in a 3:1 ratio for POPE/POPG vesicle preparation. In total, 150 mM KCl was used instead of 50 mM KCl. The suspended lipid was then sonicated (in ice water) until the solution became transparent. RhTx was mixed with 10 mg ml^−1 (total concentration) small unilamellar vesicle (SUVs). The mixture was incubated for 40 min at room temperature before ultracentrifugation. Toxin–vesicle mixtures were centrifuged at 304,000g for 150 min. The residual toxins in the supernatant were evaluated by RP-HPLC using a linear gradient of acetonitrile containing 0.1% v/v trifluoroacetic acid.

For series [4], the system named is voltage-gated Na channels. The series can be described thus: Selectivity recording on voltage-gated Na channels. The class given is cell-based. Particulars: 10 μM RhTx compared to toxin-free treatment. The method, then:
as §2, §3

The subject of series [5] is mTRPV1 point mutants at D602, Y632, T634 and L461. Nature of the series: Whole-cell current of mTRPV1 point mutants. To be noted: glycine or alanine mutation, both at 10 μM, +80 mV. In kind it is cell-based, mouse. An excerpt:
TRPV1 and TRPV3 chimeras used in this study were generated by the overlapping extension method[54] and confirmed by DNA sequencing, as described previously. Briefly, to generate V1/3S, the primer pairs (5′-[…]-3′and 5′-[…]-3′) were used. To generate other TRPV1/TRPV3 chimeras, the enzyme cutting sites by MluI were made by the primer pair (5′-[…]-3′ and 5′-[…]-3′) for TRPV1 and the primer pair (5′-[…]-3′ and 5′-[…]-3′) for TRPV3. The enzyme cutting sites by PvuI were made by the primer pair (5′-[…]-3′ and 5′-[…]-3′) for TRPV1 and the primer pair (5′-[…]-3′ and 5′-[…]-3′) for TRPV3. The enzyme cutting sites by BsiWI were made by the primer pair (5′-[…]-3′ and 5′-[…]-3′) for TRPV1 and the primer pair (5′-[…]-3′ and 5′-[…]-3′) for TRPV3. V1/3M were generated by enzyme cut and paste between MluI and PvuI sites, while V1/3L were generated by enzyme cut and paste between MluI and BsiWI sites. V1_S1S2_1, V1_S1S2_3 and V1_S1S2_3 were generated as previously reported. […]
As described in details in a previous report, macroscopic currents (in whole-cell, inside-out or outside-out configuration) as well as single-channel currents were recorded using a HEKA EPC10 amplifier with the PatchMaster software (HEKA). […] Statistical difference was determined using the Student’s t-test, and indicated by ** when reaching the significance level P<0.001.

The test system of series [6] is TRPV1. The series can be described thus: Single-channel recording of TRPV1. In kind it is cell-based. Particulars: single-channel analysis. The method, then:
as §1

For series [7], the system named is TRPV1. Nature of the series: RhTx-induced desensitization of TRPV1 heat activation, inside-out patch. To be noted: 10 μM RhTx in patch pipette solution, inside-out patches, heating to 55 °C, n=8. The class given is cell-based. An excerpt: For recording the RhTx-induced desensitization of TRPV1, temperature control was achieved by perfusion of preheated or room-temperature bathing solution. Hot bathing solution were maintained at expected temperature with an SH-27B in-line solution heater controlled by a TC-324C temperature controller (Warner). A solution exchanger RSC-200 with eight separate tubes to deliver room-temperature bathing solution and capsaicin. A TA-29 miniature bead thermistor (Harvard Apparatus) was placed right next to the pipette to ensure accurate monitoring of local temperature.

For series [8], the system named is Trpv1−/− knockout mice. Nature of the series: Paw-licking assay in TRPV1 knockout mice. In kind it is in vivo, mouse. To be noted: intraplantar, 1 μmol per paw. As for the experimental part:
In vivo effects of RhTx on WT mice or Trpv1^−/− mice were examined according to protocols described previously. For the paw-licking assay, pain was induced in mice by intraplantar injection of 0.1% formalin, capsaicin (1 μmol per paw) or RhTx (1 μmol per paw). Each of the testing materials was dissolved in 100 μl saline. Control mice received the same volume of saline. Injected mice were placed individually into open polyvinyl cages (20 × 40 × 15 cm). Time spent licking the injected paw was recorded by a digital video camera during the following 40 min. For recording colonic temperature from WT or Trpv1^−/− mice, mice equipped with a copper-constantan thermocouple were individually placed in open polyvinyl cages. A data logger was connected to the thermocouple. Mice were injected intraperitoneally with 100 μl saline containing capsaicin or RhTx. The dose of capsaicin or RhTx was 10 μmol kg^−1 for these experiments. Mice in the control group received the same volume of saline.

Series [9] concerns mTRPV4. Nature of the series: Selectivity recording on mTRPV4. To be noted: RhTx at 10 μM. The class given is cell-based, mouse. The method, then: as §1, §2, §3

Entries after “also recorded” stand apart in the source; their conditions may differ. Where a SMILES comes first, the peptide text is derived from it. Bridges are numbered along the chain shown (N, C = ends).

With `CC[C@H](C)[C@H](NC(=O)[C@@H]1CSSC[C@@H]2NC(=O)[C@H]([C@@H](C)O)NC(=O)[C@H](C(C)C)NC(=O)CNC(=O)[C@H](CC(N)=O)NC(=O)[C@@H](NC(=O)[C@@H]3CCCN3C(=O)[C@H](CC(N)=O)NC(=O)[C@H](CC(N)=O)NC(=O)[C@@H](N)CC(C)C)CSSC[C@H](NC(=O)[C@H](CCCNC(=N)N)NC(=O)[C@H](Cc3ccc(O)cc3)NC(=O)CNC(=O)[C@H](CO)NC(=O)[C@@H]3CCCN3C2=O)C(=O)N[C@@H](CO)C(=O)N[C@@H]([C@@H](C)CC)C(=O)N[C@@H](C(C)C)C(=O)N[C@@H](CC(=O)O)C(=O)N[C@@H](CCCCN)C(=O)N[C@@H](CCC(N)=O)C(=O)N1)C(=O)N[C@@H](CCCCN)C(=O)N[C@@H](CCCCN)C(=O)N[C@@H](CCC(=O)O)C(=O)O` [RhTx] (H-LNNPCNGVTCPSGYRCSIVDKQCIKKE-OH; disulfide 5-16, 10-23; N-terminus and C-terminus assumed), the “effect on infrared laser-induced heat activation, 50 nM” value in series [1] (RhTx at 50 nM in pipette, inside-out patch, +80 mV) was “substantially potentiated”. Moreover, the “lowering of the activation threshold temperature” value in series [1] (RhTx at 100 nM) turned out to be 6 °C. The “effect on infrared laser-induced heat activation, 100 nM” value in series [1] (RhTx at 100 nM in pipette, inside-out patch, +80 mV) is listed as “substantially potentiated”. Moreover, in series [2], the “response of TRPV2” value was “no detectable effect; also recorded: no discernable response”. For the same molecule, the “RP-HPLC chromatograph before versus after treatment with POPC” value in series [3] (0.1 mg RhTx, POPC SUVs 10 mg/ml, 10 mM HEPES, 50 mM KCl, pH 7.0, 40 min room temperature, supernatant RP-HPLC) is listed as “No difference”. Besides, the “RP-HPLC chromatograph before versus after treatment with POPE/POPG” value in [3] (0.1 mg RhTx, POPE/POPG 3:1 SUVs 10 mg/ml, 150 mM KCl, 40 min room temperature, supernatant RP-HPLC) is “No difference”. Moreover, the “incorporation into the lipid membrane (initial partition experiments)” value in series [3] (SUVs 10 mg/ml, 40 min at room temperature, ultracentrifugation 304,000g 150 min, supernatant by RP-HPLC) is listed as “does not incorporate into the lipid membrane”. The “effect on voltage-gated Na channels” value in series [4] is “no detectable effect; also recorded: no discernable response”. Further, in [5], the “agonist-induced current in point mutants versus WT channel” value is on record as “markedly reduced”. Also, in series [6], the “inward single-channel current amplitude compared with capsaicin-elicited currents” value was “noticeable reduction” and the open probability entry is listed as “near unity”. In series [7], the “TRPV1 heat response after extended incubation with toxin” value is given as “selectively desensitized TRPV1 heat activation but not capsaicin activation; also recorded: incapable to respond to heat”. In addition, the “pain behaviour (paw licking) in knockout mice” value in [8] was “ineffective”. Moreover, in series [9], the “response of TRPV4” value is “no detectable effect; also recorded: no discernable response”.

Source of the values: paper PMC4589873, “A pain-inducing centipede toxin targets the heat activation machinery of nociceptor TRPV1” (Nature Communications, 2015).
